Test results published in paper PMC8597786 (Antimicrobial Agents and Chemotherapy, 2021).
pEC50: −log10 of the molar value. Where two headings read alike, the source gives them in different places.

Experiments:
Test in all cases: microbe, parasite or virus in culture
[1] = tested on: SARS-CoV-2 (USA-WA1/2020 variant); assay type: cell-based
[2] = tested on: SARS-CoV-2 variant B.1.351; assay type: cell-based, SARS-CoV-2 B.1.351; settings: for pEC50: Severe acute respiratory syndrome coronavirus 2, Vero C1008, 96 h, 4 days, read-out: EC50 for CPE scoring-based assay for B.1.351
[3] = tested on: SARS-CoV-2 variant B.1.1.7; assay type: cell-based, SARS-CoV-2 B.1.1.7; settings: Severe acute respiratory syndrome coronavirus 2, Vero C1008, 96 h; 4 days; read-out: EC50 for CPE scoring-based assay for B.1.1.7
[4] = tested on: SARS-CoV-2 (USA-WA1/2020 variant); assay type: cell-based; settings: for pEC50: Severe acute respiratory syndrome coronavirus 2, Vero C1008, 48 h, read-out: EC50: yield reduction assay for WA1/2020
[5] = tested on: SARS-CoV-2 (USA-WA1/2020 variant); assay type: cell-based; settings: Severe acute respiratory syndrome coronavirus 2, Vero C1008, 96 h; 4 days; read-out: EC50: viability restoration in infected cells for WA1/2020
[6] = tested on: SARS-CoV-2 variant B.1.351; assay type: cell-based, SARS-CoV-2 B.1.351; settings: Severe acute respiratory syndrome coronavirus 2, Vero C1008, 168 h, read-out: EC50: viability restoration in infected cells for B.1.351
[7] = tested on: SARS-CoV-2 variant B.1.1.7; settings: for pEC50: Severe acute respiratory syndrome coronavirus 2, Vero C1008, 168 h, read-out: EC50: viability restoration in infected cells for B.1.1.7
[8] = tested on: SARS-CoV-2 variant B.1.351; assay type: cell-based, SARS-CoV-2 B.1.351
[9] = tested on: SARS-CoV-2 variant B.1.1.7; assay type: cell-based, SARS-CoV-2 B.1.1.7
[10] = Severe acute respiratory syndrome coronavirus 2, Vero C1008, 96 h, 4 days, read-out: EC50 for CPE scoring-based assay for WA1/2020
[11] = Severe acute respiratory syndrome coronavirus 2, Vero C1008, read-out: EC50s, range over cytopathic effect and yield reduction assays

How did the pEC50 ([1]; 4 days, read-out: EC50 for CPE scoring-based assay for WA1/2020) turn out when `CC(C)C[C@H](NC(=O)OCc1ccccc1)C(=O)N[C@@H](CC1CCNC1=O)C(O)S(=O)(=O)O` (stereo partly drawn) [GC-376, reference compound] was run?
Its pEC50 is 5.41.

Which results are given for `Oc1ccc([C@@H]2c3c(O)cc(O)cc3[C@@H]3c4c(cc(O)cc4[C@H]2[C@@H]2c4cc(O)cc5c4[C@@H](c4cc(O)cc(O)c4[C@H]2c2ccc(O)cc2)[C@H](c2ccc(O)cc2)O5)O[C@H]3c2ccc(O)cc2)cc1` [Hopeaphenol, (–)-hopeaphenol]?
Fold improved activity against B.1.351 over USA-WA1/2020 (CPE EC50) [2]: 4.5 fold; pEC50 [2]: 5.64; pEC50 [3]: 4.83; % infected, Average ([4]; 1 μM): 29.2%; % infected, Average ([4]; 3 μM): 23.0%; % infected, Average ([4]; 10 μM): 18.7%; % infected, Average ([4]; 30 μM): 11.5%; % infected, Average ([4]; 50 μM): 3.6%; pEC50 [4]: 4.87; pEC50 [5]: 4.63; pEC50 [6]: 5.12; pEC50 [7]: 5.11; pEC50 [1, 10]: 4.99; pEC50 [1, 11]: 4.63 to 4.99; pEC50 ([1]; Severe acute respiratory syndrome coronavirus 2, read-out: EC50s in infectious viral assays, range): 4.63 to 5.64; % infected, Average ([8]; 3 μM): 20.6%; % infected, Average ([8]; 10 μM): 11.6%; % infected, Average ([8]; 20 μM): 9.9%; % infected, Average ([8]; 50 μM): 0.1%; pEC50 ([8]; Severe acute respiratory syndrome coronavirus 2, Vero C1008, 48 h, read-out: EC50: yield reduction assay for B.1.351): 5.06; % infected, Average ([9]; 3 μM): 12.1%; % infected, Average ([9]; 10 μM): 10.4%; % infected, Average ([9]; 20 μM): 6.7%; % infected, Average ([9]; 50 μM): 0.0%; pEC50 ([9]; Severe acute respiratory syndrome coronavirus 2, Vero C1008, 48 h, read-out: EC50: yield reduction assay for B.1.1.7): 4.94

With `CCC(CC)COC(=O)[C@H](C)N[P@](=O)(OC[C@H]1O[C@@](C#N)(c2ccc3c(N)ncnn23)[C@H](O)[C@@H]1O)Oc1ccccc1` [Remdesivir, remdesivir, reference compound] as the molecule, how does the pEC50 [2] read?
The pEC50 was 5.85.

And the pEC50 [3]?
The pEC50 was 5.82.

And the “% infected, Average” value ([4]; 0.3 μM)?
Its value is 21.0%.

And the “% infected, Average” value ([4]; 1 μM)?
The value was 13.5%.

And the “% infected, Average” value ([4]; 3 μM)?
The value was 8.5%.

And the “% infected, Average” value ([4]; 10 μM)?
The value was 0.0%.

What about the pEC50 [4] of the same molecule?
Its pEC50 is 6.00.

And the pEC50 [5]?
The pEC50 was 5.14.

And the pEC50 [6]?
Its pEC50 is under 5.00.

What about the pEC50 [7] of the same molecule?
The pEC50 was under 5.00.

What about the pEC50 [1, 10] of the same molecule?
The pEC50 was 5.60.

What about the pEC50 [1, 11] of the same molecule?
The pEC50 was 5.14 to 6.00.

Which results are given for `Oc1ccc(/C=C/c2cc(O)cc(O)c2)cc1` [Resveratrol, resveratrol, reference compound]?
pEC50 [5]: < 4.30; pEC50 [1, 10]: < 4.00

With `OC[C@H]1O[C@@H](Oc2cc3c4c(c2)[C@@H]([C@@H]2c5cc(O)cc6c5[C@@H](c5cc(O)cc(O)c5[C@H]2c2ccc(O)cc2)[C@H](c2ccc(O)cc2)O6)[C@H](c2ccc(O)cc2)c2c(O)cc(O)cc2[C@H]4[C@H](c2ccc(O)cc2)O3)[C@H](O)[C@@H](O)[C@@H]1O` [Vatalbinoside A, vatalbinoside A] as the molecule, how does the pEC50 [2] read?
The pEC50 was 5.44.

And the pEC50 [3]?
The pEC50 was 5.40.

And the “% infected, Average” value ([4]; 1 μM)?
Its value is 17.1%.

And the “% infected, Average” value ([4]; 3 μM)?
The value was 17.8%.

What about the “% infected, Average” value ([4]; 10 μM) of the same molecule?
The value was 16.7%.

What about the “% infected, Average” value ([4]; 30 μM) of the same molecule?
Its value is 9.9%.

And the “% infected, Average” value ([4]; 50 μM)?
Its value is 11.2%.

And the pEC50 [4]?
The pEC50 was 4.72.

What about the pEC50 [5] of the same molecule?
The pEC50 was 4.73.

And the pEC50 [6]?
The pEC50 was 4.95.

And the pEC50 [7]?
The pEC50 was under 4.30.

What about the viability at 20 µM ([7]; Severe acute respiratory syndrome coronavirus 2, read-out: Restored viability in B.1.1.7-infected cells) of the same molecule?
The viability at 20 µM was at most 51.2%.

And the pEC50 [1, 10]?
Its pEC50 is 4.86.

Which results are given for `Oc1ccc([C@@H]2c3c(O)cc(O)cc3[C@@H]3c4c(cc(O)c5c4[C@@H]2[C@H](c2ccc(O)cc2)[C@H]5c2cc(O)cc4c2[C@@H](c2cc(O)cc(O)c2)[C@H](c2ccc(O)cc2)O4)O[C@H]3c2ccc(O)cc2)cc1` [Vaticanol B, vaticanol B]?
pEC50 [2]: 4.60; pEC50 [3]: 4.49; % infected, Average ([4]; 10 μM): 30.0%; % infected, Average ([4]; 30 μM): 26.8%; % infected, Average ([4]; 50 μM): 16.9%; pEC50 [4]: < 4.30; pEC50 [5]: < 4.30; pEC50 [6]: < 4.30; pEC50 [7]: < 4.30; pEC50 [1, 10]: 4.43
